Results published in ChEMBL document CHEMBL1201862, “PubChem BioAssay data set” (2004).
The source made the active and inactive calls.

What was measured:
Large T antigen = Large T antigen (Simian virus 40, UniProt P03070); format: functional, Betapolyomavirus macacae;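 note: Confirmatory-stage PubChem screen for compounds that inhibit SV40 T antigen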
cells = format: functional
[1] = biological target: Heat shock protein HSP 90-alpha (Homo sapiens, UniProt P07900); format: functional, organism-based
Cytochrome P450 2C9 = Cytochrome P450 2C9 (Homo sapiens, UniProt P11712)
[2] = biological target: T1, Ubiquitin-conjugating enzyme E2 N (Homo sapiens, UniProt P61088); format: functional;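 note: Dose-response confirmation in a TR-FRET assay detecting UBC13-driven polyubiquitin chain formation, inhibition measured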
T1 sequence (P61088 whole entry): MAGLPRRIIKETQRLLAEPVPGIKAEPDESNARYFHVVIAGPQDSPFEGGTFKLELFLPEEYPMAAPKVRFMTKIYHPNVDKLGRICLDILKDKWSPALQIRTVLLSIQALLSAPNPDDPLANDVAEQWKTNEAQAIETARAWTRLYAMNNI

[3] = biological target: T2, Heat shock factor protein 1 (Mus musculus, UniProt P38532); experiment: enhancement of HSF1-driven luciferase signal – cell-based, NIH3T3, luminescence, dose retest, confirmation (AID 435004); format: functional;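 note: stress induced by proteasome inhibitor MG132 added 30 min after compound; luciferase reporter driven by HSF1 response element in NIH3T3 cells; actives raise luminescence as potentiators of the MG132 stress response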
T2 sequence (P38532 whole entry): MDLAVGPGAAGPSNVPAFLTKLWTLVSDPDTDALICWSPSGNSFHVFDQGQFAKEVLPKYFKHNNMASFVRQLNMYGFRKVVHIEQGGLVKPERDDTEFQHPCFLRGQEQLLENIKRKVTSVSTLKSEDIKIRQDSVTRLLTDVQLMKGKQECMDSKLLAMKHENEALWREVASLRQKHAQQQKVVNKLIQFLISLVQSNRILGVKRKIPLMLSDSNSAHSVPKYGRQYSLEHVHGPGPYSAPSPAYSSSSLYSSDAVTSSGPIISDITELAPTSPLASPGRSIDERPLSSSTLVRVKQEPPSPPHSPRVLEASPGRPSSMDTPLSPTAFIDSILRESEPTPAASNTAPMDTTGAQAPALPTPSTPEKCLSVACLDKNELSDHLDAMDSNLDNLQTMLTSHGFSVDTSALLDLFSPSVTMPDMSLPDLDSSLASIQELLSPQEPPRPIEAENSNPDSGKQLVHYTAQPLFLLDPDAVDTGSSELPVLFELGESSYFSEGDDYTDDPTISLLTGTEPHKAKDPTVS

[4] = biological target: T3, High affinity choline transporter 1 (Homo sapiens, UniProt Q9GZV3); experiment: human choline transporter blockers, potency – cell-based, 5-point CRC, membrane potential dye, dose response (AID 504840); format: functional
T3 sequence (Q9GZV3 whole entry): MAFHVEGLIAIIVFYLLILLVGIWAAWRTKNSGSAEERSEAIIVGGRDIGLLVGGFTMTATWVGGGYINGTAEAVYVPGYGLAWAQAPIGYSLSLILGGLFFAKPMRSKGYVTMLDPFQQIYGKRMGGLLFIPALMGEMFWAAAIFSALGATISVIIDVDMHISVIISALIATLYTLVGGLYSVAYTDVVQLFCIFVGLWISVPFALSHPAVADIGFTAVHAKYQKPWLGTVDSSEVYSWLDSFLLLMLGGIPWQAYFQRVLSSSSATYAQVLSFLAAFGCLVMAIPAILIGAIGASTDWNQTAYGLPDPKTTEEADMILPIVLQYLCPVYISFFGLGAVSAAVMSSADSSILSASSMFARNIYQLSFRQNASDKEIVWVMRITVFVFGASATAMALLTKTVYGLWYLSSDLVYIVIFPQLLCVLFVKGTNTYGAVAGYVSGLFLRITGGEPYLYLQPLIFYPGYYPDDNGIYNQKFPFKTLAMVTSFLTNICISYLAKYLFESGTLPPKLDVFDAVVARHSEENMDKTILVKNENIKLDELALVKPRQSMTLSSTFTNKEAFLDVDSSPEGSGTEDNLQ

Fatty acid synthase [5] = biological target: T4, Fatty acid synthase (Homo sapiens, UniProt P49327); experiment: inhibition of human FAS-TE enzyme activity – biochemical, endpoint fluorescence intensity, uHTS hits, dose response (AID 624327); format: functional;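 note: fluorescence from hydrolysis of an O-methyl fluorescein acyl ester substrate by the enzyme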
[6] = biological target: T5, Replicative DNA helicase DnaB (Mycobacterium tuberculosis, UniProt P9WMR3); experiment: DnaB intein splicing inhibitors, dose response, biochemical, cell-free fluorescence (AID 449749); format: functional
T5 sequence (P9WMR3 whole entry): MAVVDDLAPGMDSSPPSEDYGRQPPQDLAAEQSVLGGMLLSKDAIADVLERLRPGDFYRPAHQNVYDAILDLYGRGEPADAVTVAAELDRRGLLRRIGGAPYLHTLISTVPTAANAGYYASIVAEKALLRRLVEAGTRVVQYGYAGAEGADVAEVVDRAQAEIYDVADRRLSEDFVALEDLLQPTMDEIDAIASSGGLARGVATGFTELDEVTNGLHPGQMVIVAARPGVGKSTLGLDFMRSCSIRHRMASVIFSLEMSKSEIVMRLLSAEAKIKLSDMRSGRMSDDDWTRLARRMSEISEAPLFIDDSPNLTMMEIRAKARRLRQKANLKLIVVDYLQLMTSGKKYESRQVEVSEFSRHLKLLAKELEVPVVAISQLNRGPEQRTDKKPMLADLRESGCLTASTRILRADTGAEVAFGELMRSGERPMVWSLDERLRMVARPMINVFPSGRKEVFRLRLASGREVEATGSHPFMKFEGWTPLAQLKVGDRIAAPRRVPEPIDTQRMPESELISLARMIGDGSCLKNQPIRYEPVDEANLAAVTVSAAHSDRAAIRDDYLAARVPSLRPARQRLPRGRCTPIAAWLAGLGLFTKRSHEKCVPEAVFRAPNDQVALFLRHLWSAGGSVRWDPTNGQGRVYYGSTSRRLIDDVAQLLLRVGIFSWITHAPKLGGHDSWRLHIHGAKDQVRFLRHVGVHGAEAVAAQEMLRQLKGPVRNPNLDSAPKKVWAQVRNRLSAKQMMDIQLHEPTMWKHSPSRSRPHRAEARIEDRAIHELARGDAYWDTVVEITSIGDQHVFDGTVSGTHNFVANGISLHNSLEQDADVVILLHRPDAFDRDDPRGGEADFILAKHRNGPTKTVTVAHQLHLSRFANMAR

Protein RecA = biological target: T6, Protein RecA (Mycobacterium tuberculosis, UniProt P9WHJ3); experiment: Fluorescence Cell-Free Homogeneous Dose Retest to Identify Inhibitors of RecA-Intein Splicing Activity. [Related pubchem assays (depositor defined):AID2097, AID2223, AID489010, AID492950]; format: functional
T6 sequence (P9WHJ3 whole entry): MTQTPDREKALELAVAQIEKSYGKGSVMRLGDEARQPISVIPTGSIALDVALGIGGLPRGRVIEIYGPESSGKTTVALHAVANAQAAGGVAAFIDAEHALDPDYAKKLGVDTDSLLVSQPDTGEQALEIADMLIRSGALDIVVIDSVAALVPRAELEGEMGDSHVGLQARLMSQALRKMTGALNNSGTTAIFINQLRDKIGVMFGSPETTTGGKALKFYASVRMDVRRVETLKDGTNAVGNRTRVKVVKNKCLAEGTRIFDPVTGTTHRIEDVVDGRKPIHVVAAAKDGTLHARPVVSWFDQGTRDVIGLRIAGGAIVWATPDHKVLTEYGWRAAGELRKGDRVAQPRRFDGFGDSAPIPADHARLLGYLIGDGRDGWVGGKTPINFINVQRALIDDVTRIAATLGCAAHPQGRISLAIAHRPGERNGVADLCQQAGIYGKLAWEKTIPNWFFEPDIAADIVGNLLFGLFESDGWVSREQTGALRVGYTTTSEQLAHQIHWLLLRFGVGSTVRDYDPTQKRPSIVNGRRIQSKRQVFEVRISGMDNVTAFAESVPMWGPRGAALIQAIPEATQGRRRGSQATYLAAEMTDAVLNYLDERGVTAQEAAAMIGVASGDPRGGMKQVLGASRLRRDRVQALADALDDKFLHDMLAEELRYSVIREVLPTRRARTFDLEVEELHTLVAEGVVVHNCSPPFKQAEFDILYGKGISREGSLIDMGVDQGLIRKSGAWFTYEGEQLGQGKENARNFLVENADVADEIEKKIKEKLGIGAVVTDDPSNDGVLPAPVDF

Fatty acid synthase [7] = biological target: T4, Fatty acid synthase; experiment: inhibition of human FAS-TE enzyme activity – biochemical, kinetic fluorescence intensity, dose response (AID 624326); format: functional;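 note: rate of fluorescence rise from hydrolysis of a fluorogenic O-methyl fluorescein ester substrate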
[8] = Luminescence Cell-Based Dose Retest to Confirm Inhibitors of Cancer Stem Cells. [Related pubchem assays (depositor defined):AID2717, AID2721]; format: functional; conditions: Homo sapiens
[9] = non-specific 3'UTR reporter inhibition in Clone20-Shn3RL – cell-based, Renilla luciferase, cherry-picked, counter-screen for Shn3 inhibitor project, dose response (AID 624133); format: functional
[10] = reduction of Shn3 3'UTR-driven luciferase in osteoblasts – cell-based, Clone20 osteoblasts, firefly luciferase, cherry-picked, dose response (AID 624132); format: functional;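 note: firefly luciferase luminescence from reporter carrying the Shn3 3'UTR in osteoblasts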
[11] = fluconazole-exposed Candida albicans growth modulators – fluorescence, retest, confirmation (AID 2467); format: functional, cell-based
[12] = HIV-1 AD8 envelope cell-cell fusion blockers – cherry-pick, dose response (AID 652062); format: functional, cell-based;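 note: luciferase signal from cell-cell fusion driven by HIV-1 clade B AD8 Env; potency is for inhibitors of fusion seen as a drop in luminescence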
[13] = NIH-3T3 fibroblast cytotoxicity, dose response, cytotoxicity control, cell-based, fluorescence, Alamar Blue, secondary assay (AID 2327); format: functional;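 note: NIH-3T3 mouse fibroblasts cultured with fluconazole at 8 µg/mL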
[14] = blockers of HIV-1 envelope-mediated cell-cell fusion – cherry-pick, dose response (AID 652057); format: functional, cell-based
[15] = blockers of HIV-1 ZM109 envelope-driven cell-cell fusion – HeLa effector, CEM target cells, luciferase, cherry-pick, dose response (AID 652058); format: functional, cell-based;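 note: luciferase signal from HIV-1 Env mediated cell-cell fusion of effector and target cells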
[16] = loss of viability in HepG2 cells – cell-based, CellTiter-Glo, cherry-picked, cytotoxicity control for Shn3 inhibitor project, dose response (AID 624134); format: functional
[17] = NIH3T3 cell viability loss – ATP luminescence, mouse fibroblasts, counter-screen, dose response (AID 2010); format: functional, cell-based;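 note: cells exposed to compound for about 90 hours before reading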
[18] = Trypanosoma cruzi growth suppression in host cells – NIH3T3 host cells, beta-gal luminescence, confirmation (AID 2044); format: functional, cell-based;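 note: intracellular parasites grown in NIH/3T3 mouse fibroblasts as host cells; luminescent beta-galactosidase reporter signal from transgenic T. cruzi replicating inside host cells; inhibitors lower the luminescence signal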

Sequence of Large T antigen (P03070 whole entry): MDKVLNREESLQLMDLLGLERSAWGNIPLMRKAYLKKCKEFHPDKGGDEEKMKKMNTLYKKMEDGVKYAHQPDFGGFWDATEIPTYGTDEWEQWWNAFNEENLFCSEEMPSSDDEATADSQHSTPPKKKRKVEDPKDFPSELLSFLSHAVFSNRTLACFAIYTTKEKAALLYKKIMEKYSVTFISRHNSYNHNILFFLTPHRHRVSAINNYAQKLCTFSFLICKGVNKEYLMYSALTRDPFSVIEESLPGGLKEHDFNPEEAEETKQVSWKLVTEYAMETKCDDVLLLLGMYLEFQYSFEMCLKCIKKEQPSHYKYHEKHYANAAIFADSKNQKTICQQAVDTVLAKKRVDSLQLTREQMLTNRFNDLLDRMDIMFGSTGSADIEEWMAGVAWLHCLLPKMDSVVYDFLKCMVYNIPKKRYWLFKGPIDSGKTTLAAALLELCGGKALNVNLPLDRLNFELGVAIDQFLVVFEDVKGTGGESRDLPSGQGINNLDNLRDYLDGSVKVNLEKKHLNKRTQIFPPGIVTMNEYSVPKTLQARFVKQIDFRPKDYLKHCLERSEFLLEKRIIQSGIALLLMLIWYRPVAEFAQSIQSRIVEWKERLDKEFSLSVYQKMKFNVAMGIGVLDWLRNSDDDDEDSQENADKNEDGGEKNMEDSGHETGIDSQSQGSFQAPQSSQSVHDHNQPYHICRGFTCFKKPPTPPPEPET
T4 sequence (P49327 whole entry): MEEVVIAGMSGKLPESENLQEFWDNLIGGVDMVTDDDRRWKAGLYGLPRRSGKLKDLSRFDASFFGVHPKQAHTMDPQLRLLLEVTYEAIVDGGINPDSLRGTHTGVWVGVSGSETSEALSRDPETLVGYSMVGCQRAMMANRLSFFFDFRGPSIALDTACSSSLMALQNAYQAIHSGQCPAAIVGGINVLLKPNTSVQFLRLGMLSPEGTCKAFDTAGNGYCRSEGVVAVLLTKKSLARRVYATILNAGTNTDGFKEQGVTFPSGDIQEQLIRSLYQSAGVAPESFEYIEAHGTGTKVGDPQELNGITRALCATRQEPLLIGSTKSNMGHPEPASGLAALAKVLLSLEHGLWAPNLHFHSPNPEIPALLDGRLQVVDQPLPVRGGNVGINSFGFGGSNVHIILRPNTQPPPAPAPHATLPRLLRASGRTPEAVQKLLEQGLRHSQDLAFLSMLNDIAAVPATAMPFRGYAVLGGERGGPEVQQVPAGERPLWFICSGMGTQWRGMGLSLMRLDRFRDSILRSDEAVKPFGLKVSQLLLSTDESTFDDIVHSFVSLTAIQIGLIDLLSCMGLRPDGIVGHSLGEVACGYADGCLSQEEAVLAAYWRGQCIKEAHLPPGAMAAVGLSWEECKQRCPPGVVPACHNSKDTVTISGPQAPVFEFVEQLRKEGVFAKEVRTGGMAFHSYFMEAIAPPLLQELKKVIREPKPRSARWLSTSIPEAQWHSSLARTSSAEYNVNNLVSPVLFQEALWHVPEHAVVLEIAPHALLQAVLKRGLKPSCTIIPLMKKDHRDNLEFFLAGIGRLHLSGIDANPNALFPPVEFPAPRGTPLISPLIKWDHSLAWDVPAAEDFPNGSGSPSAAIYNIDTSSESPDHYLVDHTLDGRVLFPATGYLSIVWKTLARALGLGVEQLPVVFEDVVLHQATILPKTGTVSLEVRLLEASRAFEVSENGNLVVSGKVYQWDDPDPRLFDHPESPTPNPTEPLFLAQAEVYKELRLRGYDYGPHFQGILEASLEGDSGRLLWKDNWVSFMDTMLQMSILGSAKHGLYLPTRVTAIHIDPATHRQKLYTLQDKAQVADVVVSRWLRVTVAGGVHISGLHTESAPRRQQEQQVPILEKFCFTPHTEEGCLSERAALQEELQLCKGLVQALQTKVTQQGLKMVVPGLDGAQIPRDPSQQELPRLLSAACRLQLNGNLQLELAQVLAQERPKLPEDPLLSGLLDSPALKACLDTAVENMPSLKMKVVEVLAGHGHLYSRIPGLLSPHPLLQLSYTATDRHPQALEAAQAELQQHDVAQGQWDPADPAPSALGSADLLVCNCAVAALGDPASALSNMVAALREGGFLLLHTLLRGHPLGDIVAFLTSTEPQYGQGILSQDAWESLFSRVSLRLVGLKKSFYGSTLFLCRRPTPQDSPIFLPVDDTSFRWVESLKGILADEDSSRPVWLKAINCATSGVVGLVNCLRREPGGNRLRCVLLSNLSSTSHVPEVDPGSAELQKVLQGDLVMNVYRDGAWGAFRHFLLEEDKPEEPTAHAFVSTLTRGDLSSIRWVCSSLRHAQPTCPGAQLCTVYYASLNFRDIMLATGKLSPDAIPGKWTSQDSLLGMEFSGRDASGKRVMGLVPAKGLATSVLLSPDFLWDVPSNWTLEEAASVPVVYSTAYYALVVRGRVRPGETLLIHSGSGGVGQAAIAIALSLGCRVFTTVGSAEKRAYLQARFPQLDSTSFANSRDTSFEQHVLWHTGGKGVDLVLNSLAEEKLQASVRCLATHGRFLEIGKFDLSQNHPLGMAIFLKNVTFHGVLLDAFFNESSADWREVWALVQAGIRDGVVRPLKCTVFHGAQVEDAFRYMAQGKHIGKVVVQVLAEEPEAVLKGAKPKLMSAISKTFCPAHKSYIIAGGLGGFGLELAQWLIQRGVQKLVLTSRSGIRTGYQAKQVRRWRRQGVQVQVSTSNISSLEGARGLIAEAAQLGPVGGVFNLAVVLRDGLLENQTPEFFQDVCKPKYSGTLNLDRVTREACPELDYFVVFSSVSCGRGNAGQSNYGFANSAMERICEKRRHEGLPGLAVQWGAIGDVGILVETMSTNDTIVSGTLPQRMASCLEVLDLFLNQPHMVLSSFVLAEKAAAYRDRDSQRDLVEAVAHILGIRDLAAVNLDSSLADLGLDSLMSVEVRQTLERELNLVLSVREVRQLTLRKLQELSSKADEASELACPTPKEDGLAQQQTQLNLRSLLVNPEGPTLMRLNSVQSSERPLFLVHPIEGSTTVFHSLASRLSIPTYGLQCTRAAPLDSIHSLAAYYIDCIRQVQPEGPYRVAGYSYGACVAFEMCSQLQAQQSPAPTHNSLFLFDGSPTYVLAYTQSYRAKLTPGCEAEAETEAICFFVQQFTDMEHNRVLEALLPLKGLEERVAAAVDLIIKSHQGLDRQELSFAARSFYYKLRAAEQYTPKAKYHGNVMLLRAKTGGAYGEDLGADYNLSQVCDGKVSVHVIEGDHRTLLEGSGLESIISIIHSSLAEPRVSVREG
Sequence of Cytochrome P450 2C9 (P11712 whole entry): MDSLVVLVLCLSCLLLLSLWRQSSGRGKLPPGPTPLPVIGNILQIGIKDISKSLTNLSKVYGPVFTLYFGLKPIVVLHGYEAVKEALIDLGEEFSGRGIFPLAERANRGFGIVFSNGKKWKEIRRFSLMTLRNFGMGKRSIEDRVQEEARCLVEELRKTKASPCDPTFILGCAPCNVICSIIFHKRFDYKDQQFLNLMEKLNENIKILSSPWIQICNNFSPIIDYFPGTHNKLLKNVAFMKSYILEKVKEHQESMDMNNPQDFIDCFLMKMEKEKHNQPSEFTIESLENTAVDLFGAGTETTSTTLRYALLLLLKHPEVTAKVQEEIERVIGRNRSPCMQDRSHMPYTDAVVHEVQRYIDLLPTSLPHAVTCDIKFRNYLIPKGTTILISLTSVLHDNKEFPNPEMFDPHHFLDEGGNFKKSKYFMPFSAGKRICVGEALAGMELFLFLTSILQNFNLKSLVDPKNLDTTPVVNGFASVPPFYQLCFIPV

## C/C(=N\NC(=O)Cn1cc([N+](=O)[O-])cn1)c1ccc(O)cc1
Large T antigen
  IC50: 54.5 µM (active)

## O=Cc1c(NCc2ccco2)nc2ccccn2c1=O
cells
  IC50: 40.4 µM (active)

## CC(/C=N/n1c(S)nnc1-c1cccnc1)=C\c1ccccc1
Large T antigen
  IC50: 58.1 µM (active)

## CC1=CC2OC3CC4OC(=O)C=CC=CC(=O)OCCC(C)C(O)C(=O)OCC2(CC1)C4(C)C31CO1 (centres undefined)
[1]
  AC50: < 0.195 µM (active)

## O=[N+]([O-])c1ccc(/C=N/c2ccc(Cl)cc2Cl)s1
[1]
  AC50: 7.83 µM (active)
Cytochrome P450 2C9
  AC50: 2.24 µM (inconclusive)

## CN(C)/C=C/C(=O)/C=C/c1cn(-c2ncc(C(F)(F)F)cc2Cl)c2ccccc12
[1]
  AC50: 2.9 µM (active)

## COc1ccc2nc3oc(C(=O)NC4CCN(Cc5ccccc5)CC4)cc3cc2c1
[2]
  IC50: > 20 µM (inactive)

## CCCCN=C(S)NNC(=O)c1csc2ccccc12
[3]
  EC50: > 260 µM (inactive)

## c1ccc(C2(CN3CCNC[C@H]3Cc3cccc4ccccc34)CC2)cc1
[2]
  IC50: > 20 µM (inactive)

## Cc1ccc(S(=O)(=O)N2[C@@H](c3ccc(Cl)cc3)C(C(=O)O)=CC[C@H]2c2ccc(Cl)cc2)cc1
[4]
  IC50: 5.01 µM (active)
Large T antigen
  IC50: > 100 µM (active)

## CC(C)(C)OC(=O)NCCc1nnc(S(=O)(=O)Cc2ccc(Cl)cc2Cl)o1
Fatty acid synthase [5]
  IC50: 4.23 µM (active)
[6]
  AC50: 1.61 µM (active)
cells
  IC50: 30.1 µM (active)
Protein RecA
  EC50: 4.66 µM (active)
Fatty acid synthase [7]
  IC50: 6.42 µM (active)
[8]
  AC50: 3.94 µM (active)

## c1csc(CNc2ncnc3sccc23)c1
[9]
  AC50: 4.77 µM (active)
[10]
  AC50: 1.8 µM (active)
[11]
  EC50: 3.28 µM (active)
[12]
  AC50: 8.87 µM (active)
[13]
  EC50: > 160 µM (inconclusive)
[14]
  AC50: 39.4 µM (active)
[15]
  AC50: 46.1 µM (active)
[16]
  AC50: 4.61 µM (active)

## COc1ccc(NC(=O)c2sccc2SCc2cccc(C(F)(F)F)c2)cc1
[3]
  EC50: > 260 µM (inactive)
[17]
  EC50: > 60 µM (not active)
[18]
  EC50: 2.61 µM (active)

## Cc1ccc(C(=O)ONC(=O)c2ccc(Cl)cc2)cc1[N+](=O)[O-]
[1]
  AC50: 4.03 µM (active)

## CC(C)c1ccc(C2CC(=O)N3CN(C)CSC3=C2C#N)cc1 (centres undefined)
Large T antigen
  IC50: 54.9 µM (active)

## CO[C@@H](CN(C)S(=O)(=O)c1ccc(Cl)cc1)[C@@H](C)CN([C@H](C)CO)S(=O)(=O)c1cccc(Cl)c1
[12]
  AC50: 19.5 µM (active)
[14]
  AC50: 1.25 µM (active)
[15]
  AC50: 1.1 µM (active)

## COC(=O)/C=C1/N=C(Nc2nc(C)cc(C)n2)N(c2ccc(C)c(C)c2)C1=O
[3]
  EC50: > 260 µM (inactive)

## CCc1ccc(S(=O)(=O)N(C(=O)c2ccncc2)c2ccc(OC(=O)c3ccncc3)cc2)cc1
[1]
  AC50: 1.03 µM (active)

## CS(=O)(=O)Nc1cccc2cccnc12
cells
  IC50: 2.87 µM (active)

## CCOC(=O)C1CCCN(C(=O)c2sc3nc(C)nc(N(CC)CC)c3c2C)C1 (centres undefined)
[3]
  EC50: > 260 µM (inactive)

## COc1ccccc1OCC(=O)c1[nH]c(C)c(C(C)=O)c1C
[9]
  AC50: 3.81 µM (active)
[10]
  AC50: 3.35 µM (active)
[12]
  AC50: 46.4 µM (active)
[15]
  AC50: 2.13 µM (active)
[16]
  AC50: > 70 µM (inactive)

## CCCCOc1ccc(C(=O)N/N=C/c2c[nH]nc2-c2ccc(OC)c(OC)c2)cc1
[3]
  EC50: > 260 µM (inactive)
